Holding throughout (assay): NCI tumour cell line growth inhibition, 48 h
Experiment [1] has as its system A498.
In experiment [2] the test system is CCRF-CEM.
For experiment [3], the system named is HCT-116.
Experiment [4] concerns K562.
Experiment [5] relates to LOX IMVI.
Experiment [6] has as its system M14.
Experiment [7] has as its system MDA-MB-231.
Experiment [8] has as its system MDA-MB-435.
In experiment [9] the test system is OVCAR-4.
Experiment [10] deals with OVCAR-8.
Experiment [11] has as its system SK-MEL-2.
Experiment [12] concerns SK-MEL-5.
For experiment [13], the system named is SN12C.
Experiment [14] relates to SNB-19.
The test system of experiment [15] is SR.
The test system of experiment [16] is U-251.
Experiment [17] has as its system UACC-62.
Experiment [18] has as its system UO-31.
Experiment [19] relates to RPMI-8226.
For experiment [20], the system named is SNB-75.

SMILES strings stand for the structures.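 Cells were grown in 96-well plates and exposed to each compound for 48 hours at five concentrations; endpoints were interpolated linearly between bracketing concentrations, or set to the highest concentration if not reached. GI50 marks 50% less growth.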 Calls of active or inactive are those of the source. No stated cut-off is given here; in the data, active = GI50 up to about 1.1 µM and inactive = higher.

This note sets out measurements from ChEMBL document CHEMBL1201862, “PubChem BioAssay data set” (2004).

Regarding `Oc1ccc(-c2ccccc2)nn1`, the GI50 in experiment [1], in experiment [2], in experiment [3], in [4], in experiment [5] and in experiment [6] was > 100 µM (inactive) each time. Besides, the GI50 in experiment [7], in experiment [8], in experiment [9], in [10], in experiment [11] and in experiment [12] was > 100 µM (inactive) each time. Moreover, the GI50 in experiment [13], in [14], in experiment [15], in experiment [16], in [17] and in [18] was > 100 µM (inactive) throughout.
With `CC(=O)OC1COC(n2nc(N)nc2C)C(OC(C)=O)C1OC(C)=O` (configuration not stated), the GI50 in [1], in experiment [2], in experiment [3], in experiment [4], in experiment [5] and in [6] was > 100 µM (inactive) in each case. Also, the GI50 in experiment [7], in [8], in [9], in experiment [10], in [19] and in [11] was > 100 µM (inactive) each time. The GI50 in experiment [12], in experiment [13], in experiment [14], in [20], in experiment [16] and in experiment [17] was > 100 µM (inactive) throughout. In experiment [18], the GI50 was > 100 µM (inactive).
Consider `Cc1csc2nc3c(cnn3C)c(=S)n12`, for which the GI50 in experiment [2] was 87.7 µM (inactive); in experiment [3], > 100 µM (inactive); in experiment [4], > 100 µM (inactive); in experiment [5] it was 51.6 µM (inactive); in [6], > 100 µM (inactive); in experiment [7] it was > 10 µM (inactive). The GI50 is > 100 µM (inactive) in experiment [8]; > 100 µM (inactive) in experiment [9]; > 100 µM (inactive) in experiment [10]; > 100 µM (inactive) in experiment [19]; 41.9 µM (inactive) in [11]; > 100 µM (inactive) in [12]. For the same compound, the GI50 is 24.2 µM (inactive) in experiment [13]; > 100 µM (inactive) in experiment [14]; 28.1 µM (inactive) in experiment [20]; > 100 µM (inactive) in [15]; 95.3 µM (inactive) in [16]; > 100 µM (inactive) in experiment [17]. The GI50 in [18] was 33.5 µM (inactive).
With `COc1ccc2c(c1)/C(=C(\C(Cl)=C(Cl)Cl)[N+](=O)[O-])N2`, the GI50 in experiment [1] is 92.7 µM (inactive); in experiment [2] it was 31.1 µM (inactive); in experiment [3] it was > 100 µM (inactive); in experiment [4], 39 µM (inactive); in [5], 76.4 µM (inactive); in experiment [6], > 100 µM (inactive). In addition, the GI50 was > 100 µM (inactive) in [7]; 51.2 µM (inactive) in [8]; 49.1 µM (inactive) in experiment [9]; 92.5 µM (inactive) in [10]; 41 µM (inactive) in experiment [12]; > 100 µM (inactive) in [13]. Besides, the GI50 is > 100 µM (inactive) in experiment [14]; 35.7 µM (inactive) in [20]; 11 µM (inactive) in [15]; 91.2 µM (inactive) in experiment [16]; > 100 µM (inactive) in [17]; > 100 µM (inactive) in experiment [18].
On to `O=C([O-])C(O)C(O)C(O)C(O)C(=O)O.[K+]` (configuration not stated), for which the GI50 in experiment [1], in [2], in [3], in experiment [4], in [5] and in [6] was > 100 µM (inactive) throughout. The GI50 in [7], in experiment [8], in experiment [9], in experiment [10], in [11] and in experiment [12] was > 100 µM (inactive) each time. Also, the GI50 in experiment [13], in experiment [14], in [20], in [15], in experiment [16] and in [17] was > 100 µM (inactive) in each case. For the same compound, the GI50 in experiment [18] was > 100 µM (inactive).
For the compound `CN1CN(c2ccccc2)C2(CCN(CCc3csc4ccccc34)CC2)C1=O`, the GI50 in [2] is 12.3 µM (inactive); in [3], 11.3 µM (inactive); in experiment [4], 14.8 µM (inactive); in experiment [5], 13.7 µM (inactive); in experiment [6], 16.7 µM (inactive); in experiment [7], > 10 µM (inactive). In addition, the GI50 in experiment [8] is 14.4 µM (inactive); in experiment [10], 21.4 µM (inactive); in experiment [19] it was 6.84 µM (inactive); in experiment [12], 17.5 µM (inactive); in experiment [13], 15.6 µM (inactive); in experiment [14], 20.2 µM (inactive). The GI50 in experiment [20] is 17.3 µM (inactive); in [15], 11.7 µM (inactive); in experiment [16], 14.5 µM (inactive); in experiment [17] it was 19.9 µM (inactive); in experiment [18], 1.8 µM (inactive).
With `CCOC(=O)C1=C(C(=O)c2ccc(C)cc2)C(c2cccc([N+](=O)[O-])c2)C(C(=O)c2ccc(C)cc2)=C(C(=O)OCC)N1`, the GI50 in experiment [2] was 5.69 µM (inactive); in [3], 6.75 µM (inactive); in [4], 7.24 µM (inactive); in [5], 17.6 µM (inactive); in experiment [6] it was 18.1 µM (inactive); in [7], 13.9 µM (inactive). Besides, the GI50 is 16 µM (inactive) in experiment [8]; 25.4 µM (inactive) in experiment [9]; 22.5 µM (inactive) in [10]; 26.1 µM (inactive) in experiment [11]; 17.8 µM (inactive) in experiment [12]; 17.6 µM (inactive) in [13]. In addition, the GI50 was 6.08 µM (inactive) in experiment [14]; 40.9 µM (inactive) in experiment [20]; 2.93 µM (inactive) in experiment [15]; 13.1 µM (inactive) in experiment [16]; 18.2 µM (inactive) in experiment [17]; 11.4 µM (inactive) in [18].
Take `CN(C)CC[N+](C)(C)[BH2-]C(O)O`: the GI50 in experiment [1], in experiment [2], in experiment [3], in [4], in experiment [5] and in experiment [6] was > 100 µM (inactive) each time. The GI50 in experiment [7], in [8], in experiment [9], in experiment [11], in [12] and in experiment [13] was > 100 µM (inactive) each time. Moreover, the GI50 in [14], in experiment [20], in [15], in experiment [16], in [17] and in [18] was > 100 µM (inactive) each time.
Take `CC1=NN2CCC(=O)N=C2S1`: the GI50 in experiment [2], in [3], in [4], in [5], in experiment [6] and in experiment [7] was > 100 µM (inactive) throughout. Besides, the GI50 in experiment [8], in experiment [9], in experiment [10], in [19], in [11] and in [12] was > 100 µM (inactive) in each case. The GI50 in experiment [13], in [14], in experiment [20], in [15], in experiment [16] and in experiment [17] was > 100 µM (inactive) throughout.
Regarding `CC(C)NC(=O)OCCN=C1c2ccccc2C(Br)C(Br)c2ccccc21` (configuration not stated), the GI50 in [1] was 1.62 µM (inactive); in experiment [2] it was 0.46 µM (active); in experiment [3], 7.01 µM (inactive); in experiment [4], 1.06 µM (active); in experiment [5], 2.94 µM (inactive); in [6], 8.65 µM (inactive). Further, the GI50 is 11.5 µM (inactive) in experiment [7]; 7.96 µM (inactive) in experiment [8]; 6.93 µM (inactive) in experiment [9]; 8 µM (inactive) in experiment [10]; 7.83 µM (inactive) in experiment [19]; 23.7 µM (inactive) in [11]. The GI50 was 7.19 µM (inactive) in [12]; 12.6 µM (inactive) in [13]; 16.1 µM (inactive) in [14]; 8.04 µM (inactive) in experiment [20]; 10 µM (inactive) in [16]; 10.1 µM (inactive) in experiment [17]. Besides, in [18], the GI50 is 4.21 µM (inactive).
As for `C/C(=N/c1[nH]c(=O)cc2c1C(=O)CC2)N(C)C`, the GI50 in [1], in experiment [2], in [3], in experiment [4], in experiment [5] and in experiment [6] was > 200 µM (inactive) throughout. The GI50 in [7], in experiment [8], in experiment [9], in [10], in experiment [19] and in experiment [11] was > 200 µM (inactive) throughout. The GI50 in experiment [12], in experiment [13], in [14], in experiment [20], in experiment [16] and in experiment [17] was > 200 µM (inactive) each time. Further, the GI50 in [18] is > 200 µM (inactive).
